“And” between values parts separate entries of the source, which are not always exact repeats. Equal values may be shown once. Toxic doses and inconclusive results are not listed. Where a SMILES comes first, the peptide text is derived from it. [ ]: non-standard residue; d: D form. The star is where a group is joined. Cbz = O=C(OCc1ccccc1)*; Nva = CCC[CH](N)C(=O)O
Tested on: B6C3F1 mice, B16 melanoma ip, median survival T/C
Assay: NCI In Vivo Anticancer Drug Screen. Data for tumor model B16 Melanoma (intraperitoneal) in B6C3F1 mice
Conditions: endpoint: median survival time, higher = longer survival
In short: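 Transplantable tumor in mice; treated vs vehicle control groups; survival or tumor size measured; value = T/C ratio.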

[1] = dose: 100.0 mg/kg/injection, schedule: Q01DX009 (ip), vehicle: saline
[2] = dose: 200.0 mg/kg/injection, schedule: Q01DX009 (ip), vehicle: saline
[3] = dose: 6.25 mg/kg/injection, schedule: Q01DX009 (ip), vehicle: saline with Tween-80
[4] = dose: 12.5 mg/kg/injection, schedule: Q01DX009 (ip), vehicle: saline with Tween-80
[5] = dose: 25.0 mg/kg/injection, schedule: Q01DX009 (ip), vehicle: saline with Tween-80
[6] = dose: 50.0 mg/kg/injection, schedule: Q01DX009 (ip), vehicle: saline with Tween-80
[7] = dose: 100.0 mg/kg/injection, schedule: Q01DX009 (ip), vehicle: saline with Tween-80
[8] = dose: 50.0 mg/kg/injection, schedule: Q01DX009 (ip), vehicle: saline
[9] = dose: 100.0 mg/kg/injection, schedule: Q01DX009 (ip), vehicle: Klucel (hydroxypropylcellulose) (HPC)
[10] = dose: 200.0 mg/kg/injection, schedule: Q01DX009 (ip), vehicle: Klucel (hydroxypropylcellulose) (HPC)

SMILES: CCC(N)C(=O)NCC(=O)NCC(=O)O (stereo not drawn) (HELM PEPTIDE1{[CCC(N)C(=O)[*:2]].G.G}$$$$V2.0)
- T/C [1]: 105 % of control
- T/C [2]: 108 % of control
- T/C (dose: 400.0 mg/kg/injection, schedule: Q01DX009 (ip), vehicle: saline): 109 % of control

SMILES: CC[n+]1ccc2c(C)c3[nH]c4ccc(O)cc4c3c(C)c2c1
- T/C (dose: 0.39 mg/kg/injection, schedule: Q01DX009 (ip), vehicle: saline): 110 % of control and 114 % of control
- T/C (dose: 0.78 mg/kg/injection, schedule: Q01DX009 (ip), vehicle: saline): 122 % of control
- T/C (dose: 1.56 mg/kg/injection, schedule: Q01DX009 (ip), vehicle: saline): 123 % of control

SMILES: CS(=O)(=O)CS(=O)(=O)OCCCl
- T/C [3]: 114 % of control
- T/C [4]: 116 % of control
- T/C [5]: 169 % of control and 178 % of control
- T/C [6]: 228 % of control and 270 % of control
- T/C [7]: 331 % of control

SMILES: CC(=O)Oc1c[nH]c(=O)[nH]c1=O
- T/C (dose: 12.5 mg/kg/injection, schedule: Q01DX009 (ip), vehicle: distilled water + Tween-80): 99 % of control
- T/C [4]: 97 % of control
- T/C (dose: 25.0 mg/kg/injection, schedule: Q01DX009 (ip), vehicle: distilled water + Tween-80): 103 % of control
- T/C [5]: 98 % of control
- T/C (dose: 50.0 mg/kg/injection, schedule: Q01DX009 (ip), vehicle: distilled water + Tween-80): 103 % of control
- T/C [6]: 98 % of control
- T/C (dose: 100.0 mg/kg/injection, schedule: Q01DX009 (ip), vehicle: distilled water + Tween-80): 102 % of control
- T/C [7]: 90 % of control
- T/C (dose: 200.0 mg/kg/injection, schedule: Q01DX009 (ip), vehicle: distilled water + Tween-80): 98 % of control
- T/C (dose: 200.0 mg/kg/injection, schedule: Q01DX009 (ip), vehicle: saline with Tween-80): 95 % of control
- T/C (dose: 400.0 mg/kg/injection, schedule: Q01DX009 (ip), vehicle: distilled water + Tween-80): 92 % of control
- T/C (dose: 400.0 mg/kg/injection, schedule: Q01DX009 (ip), vehicle: saline with Tween-80): 98 % of control

SMILES: CC(O)C(NC(=O)OC(C)(C)C)C(=O)O (stereo not drawn)
- T/C (dose: 25.0 mg/kg/injection, schedule: Q01DX009 (ip), vehicle: saline): 86 % of control and 100 % of control
- T/C [8]: 108 % of control and 106 % of control
- T/C [1]: 108 % of control and 100 % of control
- T/C [2]: 95 % of control

SMILES: Sc1ccccc1-n1c(-c2ccccc2)ccc1-c1ccccc1
- T/C [6]: 104 % of control
- T/C [7]: 87 % of control

SMILES: CCCC(NC(=O)OCc1ccccc1)C(=O)NC(Cc1ccccc1)C(N)=O (stereo not drawn) (Cbz-[Nva]-Phe-NH2; configuration not given here)
- T/C [9]: 101 % of control
- T/C [10]: 91 % of control
- T/C (dose: 400.0 mg/kg/injection, schedule: Q01DX009 (ip), vehicle: Klucel (hydroxypropylcellulose) (HPC)): 89 % of control

SMILES: CCCCCCCCCCCCNCCCc1ccccc1
- T/C [4]: 94 % of control
- T/C [5]: 93 % of control

SMILES: [Cl][Pt+2][Cl].[NH-]c1cc2ccccc2cc1[NH-]
- T/C (dose: 20.0 mg/kg/injection, schedule: Q01DX009 (ip), vehicle: saline with Tween-80): 89 % of control
- T/C (dose: 40.0 mg/kg/injection, schedule: Q01DX009 (ip), vehicle: saline with Tween-80): 104 % of control
- T/C (dose: 80.0 mg/kg/injection, schedule: Q01DX009 (ip), vehicle: saline with Tween-80): 98 % of control
- T/C (dose: 160.0 mg/kg/injection, schedule: Q01DX009 (ip), vehicle: saline with Tween-80): 99 % of control
- T/C (dose: 320.0 mg/kg/injection, schedule: Q01DX009 (ip), vehicle: saline with Tween-80): 111 % of control

SMILES: COc1cccc2c1C(=O)c1c(O)c3c(c(O)c1C2=O)C[C@@](O)(C(=O)CO)C[C@@H]3OC1CC(N2CCOCC2C#N)C(O)C(C)O1 (stereo partly drawn)
- T/C (dose: 9.38 micrograms/kg/injection, schedule: Q01DX001 (ip), vehicle: water): 156 % of control
- T/C (dose: 18.75 micrograms/kg/injection, schedule: Q01DX001 (ip), vehicle: water): 153 % of control
- T/C (dose: 37.5 micrograms/kg/injection, schedule: Q01DX001 (ip), vehicle: water): 156 % of control

SMILES: Oc1c(Cl)cc(C(c2cc(Cl)c(O)c(Cl)c2)C(c2cc(Cl)c(O)c(Cl)c2)c2cc(Cl)c(O)c(Cl)c2)cc1Cl
- T/C (dose: 12.5 mg/kg/injection, schedule: Q01DX009 (ip), vehicle: Klucel (hydroxypropylcellulose) (HPC)): 88 % of control and 100 % of control
- T/C (dose: 25.0 mg/kg/injection, schedule: Q01DX009 (ip), vehicle: Klucel (hydroxypropylcellulose) (HPC)): 92 % of control and 99 % of control
- T/C (dose: 50.0 mg/kg/injection, schedule: Q01DX009 (ip), vehicle: Klucel (hydroxypropylcellulose) (HPC)): 93 % of control and 101 % of control
- T/C [9]: 93 % of control and 101 % of control
- T/C [10]: 104 % of control

SMILES: CS(=O)(=O)OCCN(CCOS(C)(=O)=O)c1ccc(C=O)cc1
- T/C (dose: 3.12 mg/kg/injection, schedule: Q01DX009 (ip), vehicle: saline with Tween-80): 151 % of control
- T/C [3]: 162 % of control
- T/C [4]: 186 % of control

SMILES: CC(N)C(=O)NC(CC(N)=O)C(=O)O (stereo not drawn)
- T/C [8]: 103 % of control
- T/C [1]: 94 % of control
- T/C [2]: 97 % of control
